Measurements reported in patent publication US20110262490A1, “POLYMER-AGENT CONJUGATES, PARTICLES, COMPOSITIONS, AND RELATED METHODS OF USE” (priority 2009, published 2011).
“And” between values parts separate entries of the source, which are not always exact repeats. Equal entries are not always repeated.

Columns and labels:
B16.F10 tumor = assay: Efficacy and tolerability in mouse melanoma model B16.F10 (Example 61)
Protocol: Briefly, ATP and oxygen in viable cells reduce luciferin to oxyluciferin in the presence of luciferase to produce energy in the form of light. B16.F10 cells were grown in culture to 85-90% confluency in MEM-alpha medium supplemented with fetal bovine serum (FBS) and 1% penicillin/streptomycin. Cells were removed from the flask using 0.05% trypsin (passage=4), re-suspended in PBS (density=10×10^6 cells/mL) and were implanted subcutaneously (1×10^6 cells in 100 μL PBS/mouse) into the right flank of male C57BL/6 mice on day 1.
The treatments were administered IV into the tail vein at a dose volume of 10 ml/kg, beginning on post-implantation day 5, when the mean tumor volume was ca. 60 mm^3 Animals were monitored for any morbidity and adverse effects three times a week. In addition, body weight and tumor volume were also measured three times a week.
Tumor volume was calculated with (width×width×length)/2 mm^3 formula. Efficacy was determined by tumor growth inhibition (TGI), tumor growth delay (TGD) and survival. Tumor growth inhibition (TGI) is represented as % and calculated as (1−(treated tumor volume/control tumor volume))×100 when the control group mean tumor volume reached ≧3000 mm^3 Tumor growth delay (TGD) is calculated by subtracting the day when the vehicle treated group reached the maximum tumor size 3000 mm^3 from the day when the treatment group tumor size reached 3000 mm^3. The criterion at which a mouse was removed from the study was tumor volume ≧3000 mm^3.

murine melanoma tumor = assay: Efficacy and survival in aggressive murine melanoma model at MTD (Example 92); format: in vivo, mouse; conditions: every other week dosing at MTD
Protocol: Thus, the sustained release properties of a particle according to exemplary particle 1 supports less frequent dosing of patients. Methods: Tumor-bearing mice were injected with a particle according to exemplary particle 1 or docetaxel at their respective MTD. See, for example, FIGS. 6a and 6b.

HCT-116 tumor = assay: In vivo efficacy in HCT-116 colon xenograft model (Example 44); parameters: species or system mouse; conditions: 30 mg/kg IV weekly×2
Protocol: HCT-116 cells were grown in culture to confluency in McCoy's 5a medium containing 10% FBS and 1% penicillin/streptomycin and then resuspended in McCoy's 5a (passage 4). This suspension of HCT-116 cells (density=3.7×10^6 cells/mL) was implanted subcutaneously above the right hind leg of male CD-1 nude mice on day 1.

[1] = 30 mg/kg IV 1/wk×3, listed as free docetaxel

SMILES: CC(=O)O[C@@]12CO[C@@H]1C[C@H](O)[C@@]1(C)C(=O)[C@H](O)C3=C(C)[C@@H](OC(=O)[C@H](O)[C@@H](NC(=O)OC(C)(C)C)c4ccccc4)C[C@@](O)([C@@H](OC(=O)c4ccccc4)[C@H]21)C3(C)C [Free docetaxel, docetaxel]
- Day mean tumor volume endpoint (≧3000 mm^3) reached (B16.F10 tumor; 15 mg/kg IV 1/wk×3): 29 days
- Day of 0% survival (B16.F10 tumor; 15 mg/kg IV 1/wk×3): 43 days
- Day of 50% survival (B16.F10 tumor; 15 mg/kg IV 1/wk×3): 29 days
- Increase in TGD (B16.F10 tumor; 15 mg/kg IV 1/wk×3): 45%
- Maximum body weight loss (B16.F10 tumor; 15 mg/kg IV 1/wk×3): 2%
- Tumor growth delay (TGD) (B16.F10 tumor; 15 mg/kg IV 1/wk×3): 9 days
- Tumor growth inhibition (% TGI) (B16.F10 tumor; 15 mg/kg IV 1/wk×3): 75%
- Tumor growth inhibition (% TGI) (B16.F10 tumor; 15 mg/kg IV 1/wk×3, listed as free docetaxel): 75%
- Maximum body weight loss (B16.F10 tumor; 30 mg/kg IV 1/wk×3): 12% and 14%
- Tumor growth delay (TGD) (B16.F10 tumor; 30 mg/kg IV 1/wk×3): 23 days and 18 days
- Tumor growth inhibition (% TGI) (B16.F10 tumor; 30 mg/kg IV 1/wk×3): 92% and 81%
- Day mean tumor volume endpoint (≧3000 mm^3) reached (B16.F10 tumor; [1]): 43 days and 38 days
- Day of 0% survival (B16.F10 tumor; [1]): 45 days and 43 days
- Day of 50% survival (B16.F10 tumor; [1]): 40 days and 36 days
- Increase in TGD (B16.F10 tumor; [1]): 115% and 90%
- Tumor growth delay (TGD) (B16.F10 tumor; [1]): 23 days and 18 days
- Tumor growth inhibition (% TGI) (B16.F10 tumor; [1]): 92% and 81%
- Tumor growth suppression (murine melanoma tumor): not sufficient to suppress tumor growth
- Maximum body weight loss (HCT-116 tumor): 14%
- Tumor growth inhibition (TGI) (HCT-116 tumor): 88%
- TGD (HCT-116 tumor; end point 1000 mm^3): 22 days
